Target: T1, T1R umami taste receptor (Homo sapiens, UniProt Q7RTX0+Q7RTX1)
T1 sequence (Q7RTX1 21-841): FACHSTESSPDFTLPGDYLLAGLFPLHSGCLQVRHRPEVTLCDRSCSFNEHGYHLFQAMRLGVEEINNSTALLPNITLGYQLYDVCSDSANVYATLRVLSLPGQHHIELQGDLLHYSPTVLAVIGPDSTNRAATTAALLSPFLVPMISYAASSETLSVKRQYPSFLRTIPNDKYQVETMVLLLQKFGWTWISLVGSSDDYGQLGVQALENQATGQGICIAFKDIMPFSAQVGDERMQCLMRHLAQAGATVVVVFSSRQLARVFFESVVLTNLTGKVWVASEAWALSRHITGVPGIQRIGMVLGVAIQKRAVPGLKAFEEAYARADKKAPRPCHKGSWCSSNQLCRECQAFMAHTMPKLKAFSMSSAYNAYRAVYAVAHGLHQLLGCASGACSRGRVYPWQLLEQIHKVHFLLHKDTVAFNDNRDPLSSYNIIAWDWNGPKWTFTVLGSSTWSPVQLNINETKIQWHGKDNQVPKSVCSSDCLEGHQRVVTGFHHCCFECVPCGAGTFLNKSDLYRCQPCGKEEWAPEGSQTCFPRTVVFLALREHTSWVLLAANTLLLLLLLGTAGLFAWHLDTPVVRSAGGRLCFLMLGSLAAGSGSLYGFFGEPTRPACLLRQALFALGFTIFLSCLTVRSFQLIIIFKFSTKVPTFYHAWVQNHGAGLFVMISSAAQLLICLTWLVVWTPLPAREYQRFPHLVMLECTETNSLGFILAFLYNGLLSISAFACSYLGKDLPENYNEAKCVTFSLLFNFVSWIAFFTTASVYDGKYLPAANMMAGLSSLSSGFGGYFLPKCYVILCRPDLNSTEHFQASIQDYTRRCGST
T1 sequence (Q7RTX0 21-852): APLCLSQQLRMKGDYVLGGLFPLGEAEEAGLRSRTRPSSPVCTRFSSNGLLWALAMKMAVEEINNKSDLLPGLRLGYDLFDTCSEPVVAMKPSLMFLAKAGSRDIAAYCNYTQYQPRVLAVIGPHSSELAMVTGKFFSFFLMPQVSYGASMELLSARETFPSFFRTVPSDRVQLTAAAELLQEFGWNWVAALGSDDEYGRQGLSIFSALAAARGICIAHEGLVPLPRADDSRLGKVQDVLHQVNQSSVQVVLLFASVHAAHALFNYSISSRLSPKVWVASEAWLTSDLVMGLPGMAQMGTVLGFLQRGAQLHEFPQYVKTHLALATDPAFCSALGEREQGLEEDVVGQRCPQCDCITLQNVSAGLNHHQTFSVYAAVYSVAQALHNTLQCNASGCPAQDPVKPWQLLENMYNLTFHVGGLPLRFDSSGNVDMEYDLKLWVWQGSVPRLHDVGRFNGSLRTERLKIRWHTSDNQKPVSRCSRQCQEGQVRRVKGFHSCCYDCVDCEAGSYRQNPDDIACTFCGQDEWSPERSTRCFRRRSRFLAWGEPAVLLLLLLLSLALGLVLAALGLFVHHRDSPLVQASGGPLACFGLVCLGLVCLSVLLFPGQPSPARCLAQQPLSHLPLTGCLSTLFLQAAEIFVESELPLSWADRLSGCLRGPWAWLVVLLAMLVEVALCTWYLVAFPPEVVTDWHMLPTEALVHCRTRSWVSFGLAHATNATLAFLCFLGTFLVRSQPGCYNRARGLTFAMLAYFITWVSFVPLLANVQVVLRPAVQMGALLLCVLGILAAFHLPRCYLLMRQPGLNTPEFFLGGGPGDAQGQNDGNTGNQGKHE
Experiment: in vitro cell-based assay having cells that express the T1R umami taste receptor (enhancement of MSG)
Conditions: for EC50: cells expressing T1R umami taste receptor, read-out: EC50 for enhancement of MSG binding
Method: Each of Compounds 101-183 was synthesized according to one of the general procedures set forth above in Examples 1. Thereafter, the compounds were tested in an in vitro cell-based assay having cells that express the T1R umami taste receptor. Dose-binding curves were recorded and the EC50 was determined for enhancement of MSG binding. Table 2 sets forth the calculated EC50 values for certain tested compounds as well as the MSG enhancement ratio at a particular concentration.

| Compound | EC50 [µM] | MSG Enh. Ratio (compound at 50 μM) | MSG Enh. Ratio (compound at 10 μM) | MSG Enh. Ratio (compound at 3 μM) | MSG Enh. Ratio (compound at 0.3 μM) |
| --- | --- | --- | --- | --- | --- |
| CC[C@H](C)[C@H](NC(=O)c1ccc(OC)c(OC)c1)C(=O)OC [Compound 125, Methyl (3,4-dimethoxybenzoyl)-L-isoleucinate] | > 50 | 2.7 @ | – | – | – |
| CCCCc1ccc(C(=O)N[C@@H](Cc2ccccc2)C(=O)OC)nc1 [Compound 132, Methyl (5-butylpicolinoyl)-L-phenylalaninate] | > 50 | 2.6 @ | – | – | – |
| CCOC(=O)CC[C@H](NC(=O)c1cn(C)c2ccccc12)C(=O)OCC [Compound 134, Diethyl (1-methyl-1H-indole-3-carbonyl)-L-glutamate] | > 50 | 3.8 @ | – | – | – |
| CCOC(=O)[C@@H](NC(=O)c1ccc(C)c(C)c1)C(C)C [Compound 118, Ethyl (3,4-dimethylbenzoyl)-L-valinate] | 4.8 | – | – | 7.0 @ | – |
| CCOC(=O)CC[C@H](NC(=O)c1ccc2c(c1)OCO2)C(=O)OCC [Compound 129, Diethyl (benzo[d][1,3]dioxole-5-carbonyl)-L-glutamate] | 12 | – | – | 7.5 @ | – |
| COC(=O)[C@H](Cc1ccccc1)NC(=O)c1ccc2c(c1)OCO2 [Compound 128, Methyl (benzo[d][1,3]dioxole-5-carbonyl)-L-phenylalaninate] | > 50 | – | 3.7 @ | – | – |
| COC(=O)[C@@H](NC(=O)c1ccc(OC)c(OC)c1)C(C)C [Compound 124, Methyl (3,4-dimethoxybenzoyl)-L-valinate] | > 50 | 1.8 @ | – | – | – |
| CCOC(=O)CC[C@H](NC(=O)c1ccc(C)c(C)n1)C(=O)OCC [Compound 131, Diethyl (5,6-dimethylpicolinoyl)-L-glutamate] | – | 5.6 @ | – | – | – |
| CCOC(=O)CC[C@H](NC(=O)c1ccc(C(C)C)cc1)C(=O)OCC [Compound 111, Diethyl (4-isopropylbenzoyl)-L-glutamate] | 26 | 4.4 @ | – | – | – |
| CCOC(=O)CC[C@H](NC(=O)c1cc(OC)cc(OC)c1)C(=O)OCC [Compound 126, Diethyl (3,5-dimethoxybenzoyl)-L-glutamate] | – | 5.2 @ | – | – | – |

The next lines start with the values.

| EC50 [µM] | MSG Enh. Ratio (compound at 50 μM) | MSG Enh. Ratio (compound at 10 μM) | MSG Enh. Ratio (compound at 3 μM) | MSG Enh. Ratio (compound at 0.3 μM) | Compound |
| --- | --- | --- | --- | --- | --- |
| > 50 | 4.2 @ | – | – | – | CCOC(=O)CC[C@H](NC(=O)/C=C/c1ccc(O)cc1)C(=O)OCC [Compound 164, Diethyl (E)-(3-(4-hydroxyphenyl)acryloyl)-L-glutamate] |
| > 50 | 2.7 @ | – | – | – | CCOC(=O)[C@@H](NC(=O)c1ccc2ccccc2n1)C(C)C [Compound 133, Ethyl (quinoline-2-carbonyl)-L-valinate] |
| – | – | 3.5 @ | – | – | CCOC(=O)[C@H](CCSC)NC(=O)/C=C/C(C)C [Compound 170, Ethyl (E)-(4-methylpent-2-enoyl)-L-methioninate] |
| > 50 | 2.1 @ | – | – | – | C/C=C/C(=O)N[C@@H](Cc1ccccc1)C(=O)OC [Compound 167, Methyl (E)-but-2-enoyl-L-phenylalaninate] |
| 12 | – | 5.6 @ | – | – | CCOC(=O)CC[C@H](NC(=O)/C=C/c1ccccc1)C(=O)OCC [Compound 140, Diethyl cinnamoyl-L-glutamate] |
| 2.24 | – | – | – | 3.0 @ | CCOC(=O)[C@@H](NC(=O)/C=C/c1ccc(OC)cc1)C(C)C [Compound 147, Ethyl (E)-(3-(4-methoxyphenyl)acryloyl)-L-valinate] |
| 30 | – | 3.6 @ | – | – | CCC/C=C/C(=O)N[C@H](C(=O)OC)[C@@H](C)CC [Compound 174, Methyl ((E)-hex-2-enoyl)-L-isoleucinate] |
| > 50 | 3.4 @ | – | – | – | C/C=C/C=C/C(=O)N[C@@H](Cc1ccccc1)C(=O)OCC [Compound 180, Ethyl ((2E,4E)-hexa-2,4-dienoyl)-L-phenylalaninate] |
| > 50 | 3.1 @ | – | – | – | COC(=O)CC[C@H](NC(=O)/C=C/C(C)C)C(=O)OC [Compound 173, Dimethyl (E)-(4-methylpent-2-enoyl)-L-glutamate] |

From patent publication US20250024871A1, “AMIDE COMPOUNDS AND THEIR USE AS FLAVOR MODIFIERS” (Firmenich Incorporated, priority 2021, published 2025)
